The values that follow come from US20060211072A1, “Process, composition and kit for providing a stable whole blood calibrator/control” (Streck, Inc., priority 2005, published 2006).

For test [1], the system named is glycolysis in whole blood. The experiment in a line: YSI glucose concentration over time in whole blood specimens with D,L glyceraldehyde added. It counts as cell-based. As to the method:
FIG. 4 illustrates the YSI glucose concentration (mg/dL) of blood specimens containing EDTA at various final concentrations of a mixture of D,L glyceraldehydes at 0.0, 1.0, 5.0, 10.0 and 20.0 mM, obtained over 4 weeks of real time testing at about 2° C. to about 10° C.;
FIG. 5 illustrates the YSI 2300 (reference analyzer) glucose concentration (mg/dL) of blood specimens treated at various concentrations of D,L glyceraldehyde over 3 weeks at about 2° C. to about 10° C., wherein the control is an untreated blood sample;
In one method, a sample containing a cellular component, (i.e. RBCs, WBCs) is collected into a microfuge or vacuum tube, e.g. […]®, (such as supplied by Becton, Dickinson and Company, Franklin Lakes, N.J.). The initial concentration of glucose in the sample can be 50 […].
The vacuum tube may contain any appropriate anticoagulant agent known to one of ordinary skill, including oxalate, EDTA, citrate, heparin or combination thereof, to form a suspension. If used, the anticoagulant may be added together simultaneously, or sequentially, to the sample.
The resulting suspension is incubated at about 2° C. to about 30° C. and allowed to undergo glycolysis until the glucose level is less than about 20 mg/dL. […]

Test [2] has as its system glycolysis in red blood cells. The experiment in a line: YSI glucose recovery of red blood cells treated with glyceraldehyde, washed and recombined with plasma and glucose. Format: cell-based. The conditions noted are these: RBCs treated with 20, 35 and 50 mM for 72 hours at 2-10 C; after 34 days (FIG. 6). As to the method:
FIG. 6 illustrates the YSI 2300 (reference analyzer) glucose concentration (mg/dL) of blood specimens at various concentrations of D,L glyceraldehyde respectively over 4 weeks at about 2° C. to about 10° C., wherein the control is untreated blood sample. Red blood cells were treated, washed and recombined with plasma and glucose.
RBC Treatment w/ Glyceraldehyde & Subsequent Removal
• 1) Employ fresh whole blood collected in standard anticoagulant (i.e. EDTA, heparin, sodium citrate) from a healthy adult population. Alternative blood sources may include bovine, avian, porcine, equine, goat, or alligator. • 2) Allow sufficient time for the natural enzymatic breakdown of glucose to occur (i.e. glycolysis). Deplete glucose concentration to less than about 20 mg/dl. Preferred storage at 2°-30° C. • 3) Separate RBC cellular component from plasma fraction via gravity settling and or centrifugation. If desired, the removed plasma fraction may be retained for reintroduction. • 4) Wash RBC cellular component with isotonic phosphate buffered saline solution (3×). Exchange diluent via centrifugation is preferred (15 minutes @ 1500 rpm (650×g). • 5) Adjust RBC concentration to approximately 4.0×10^6/mm^3±0.25×10^6/mm^3. […]

The test system of test [3] is glycolysis in whole blood. The settings on record: final concentration about 0.9 to 20 mM in blood sample; testing within 16 hours; cited from earlier work.

In the case of `O=CC(O)CO` (racemic) [D,L glyceraldehyde, 2,3-dihydroxypropanal], the “YSI glucose concentration loss” value in test [1] (20.0 mM D,L glyceraldehyde in EDTA, at 4 weeks, about 2-10 C (FIG. 4)) is reported as “less than 10%”; in test [1] (30.0 mM D,L glyceraldehyde in EDTA, glucose burned down then added back, at 3 weeks, about 2-10 C (FIG. 5)), “less than 3.5%”. The “loss in glucose recovery” value in test [2] is reported as less than 5%.
As to `O=CC(O)CO` (stereo not shown) [glyceraldehyde, 2,3-dihydroxypropanal], the glucose loss result in test [3] is reported as “negligible glucose loss”.
